Source: paper PMC5123075, “Structural and antitrypanosomal data of different carbasones of piperitone” (Data in Brief, 2016)

What was measured:
[1] = system: Trypanosoma brucei brucei (Tbb); test: in vitro antitrypanosomal activity (Alamar Blue method of Räz et al.); assay type: cell-based; conditions: for Selectivity index CHO/tbb: IC50 (CHO) / IC50 (Tbb); for Selectivity index WI38/tbb: IC50 (WI38) / IC50 (Tbb); for Selectivity index LC50/tbb: LC50 (A. salina) / IC50 (Tbb); for Antitrypanosomal activity, activity (verbal grade): Tbb; for Antitrypanosomal activity, activity (verbal grade) / IC50: in vitro; for IC50: Trypanosoma brucei, concentration providing 50% death of parasites, mean±SD of three experiments
Description: (§1) The Antitrypanosomal activity, toxicity test, and cytotoxicity assay were done according to Räz et al., Sleet and Brendel and Stevigny et al., respectively.

[2] = system: Chinese Hamster Ovary (CHO) cells; test: cytotoxicity assay on CHO cells (Stevigny et al.); assay type: cell-based; conditions: CHO cells
Description: as §1

[3] = cytotoxicity assay on CHO cells (Stevigny et al.); assay type: cell-based, Chinese Hamster; conditions: Chinese Hamster Ovary (CHO) cells; Chinese Hamster Ovary cells; mean±SD of three experiments
Description: as §1

[4] = system: human non cancer fibroblast cell line (WI38); test: cytotoxicity assay on WI38 cells (Stevigny et al.); assay type: cell-based; conditions: for Selectivity index WI38/CHO: IC50 (WI38) / IC50 (CHO), selectivity between the two tested cell lines; for Cytotoxicity WI38, Activity (verbal grade): WI38 cells
Description: as §1

[5] = cytotoxicity assay on WI38 cells (Stevigny et al.); assay type: cell-based, human; conditions: WI38 non-cancer fibroblast cells; human normal fibroblast cells; mean±SD of three experiments
Description: as §1

[6] = system: Artemia salina (Leach) larvae; test: toxicity test against Artemia salina Leach larvae (Sleet and Brendel); assay type: in vivo; conditions: larvae
Description: as §1

[7] = as above; assay type: in vivo; conditions: Artemia salina Leach (larvae), in vivo; concentration providing 50% death of larvae; mean±SD of three experiments
Description: as §1

SMILES	Selectivity index CHO/tbb [1]	Selectivity index WI38/tbb [1]	Selectivity index LC50/tbb [1]	Antitrypanosomal activity, activity (verbal grade) [1]	IC50 [1] [µM]	Cytotoxicity CHO, Activity (verbal grade) [2]	IC50 [3] [µM]	Selectivity index WI38/CHO [4]	Cytotoxicity WI38, Activity (verbal grade) [4]	IC50 [5] [µM]	Toxicity against A. salina Leach, Activity (verbal grade) [6]	LC50 [7] [µM]
CC1=C/C(=N\NC(N)=O)C(C(C)C)CC1 (stereo not drawn) [compound 1, piperitone semicarbazone]	0.45	1.01	0.78	low	478 ± 7.19	Not toxic	214 ± 7.56	2.25	Not cytotoxic	481 ± 6.69	Not toxic	373 ± 6.6
CC1=C/C(=N\NC(=S)Nc2ccccc2)C(C(C)C)CC1 (stereo not drawn) [compound 4, piperitone 4-phenyl thiosemicarbazone]	6.00	12.30	2.96	trypanocidal	10.9 ± 2.52	Moderate	65.3 ± 4.02	2.05	Not cytotoxic	134 ± 5.45	Toxic	32.2 ± 1.66
CC1=C/C(=N\NC(N)=S)C(C(C)C)CC1 (stereo not drawn) [compound 2, piperitone thiosemicarbazone]	0.28	1.92	1.16	moderate	74.6 ± 4.44	Cytotoxic	21.2 ± 1.37	6.78	Not cytotoxic	143 ± 4.89	Not toxic	86.7 ± 2.33
CC1=C/C(=N\NC(=O)Nc2ccccc2)C(C(C)C)CC1 (stereo not drawn) [compound 3, piperitone 4-phenyl semicarbazone]	–	–	–	trypanocidal	8.63 ± 0.81	Moderate	65.9 ± 4.8	1.23	Not cytotoxic	81 ± 9.15	Not toxic	85.5 ± 2.28
